From patent US20250197865A1, “PHARMACEUTICAL COMPOSITION FOR TREATMENT OR PREVENTION OF FIBROTIC DISEASE” (KYUSHU UNIVERSITY, NATIONAL UNIVERSITY CORPORATION, priority 2022, published 2025)

Key:
SMAD3 mRNA = assay: si Smad3 transfection of myofibroblasts from carbon tetrachloride-induced fibrotic liver, SMAD3 mRNA; format: cell-based, mouse; conditions: myofibroblasts from CCl4 liver fibrosis model; versus si Ctrl; FIG. 26c
Description: The mRNA expression levels of P4HA3 etc. in the examples of the present specification were quantified as follows. The concentration of purified RNA was determined using a microspectrophotometer DS-11 (DeNovix), and reverse transcription to cDNA was performed using a High Capacity cDNA Reverse Transcription Kit (Applied Biosystems). Quantification of mRNA was performed according to the protocol of Luna Universal qPCR Master Mix (New England BioLabs), with DNA polymerase activation at 95° C. for 60 seconds, followed by 45 cycles of cDNA denaturation at 95° C. for 15 seconds and extension at 60° C. for 30 seconds. Analysis was performed by the AACt method using GAPDH as an internal standard. Mouse Cyp7al probe was purchased from Applied Biosystems. Primers and probes for mouse α-smooth muscle actin (α-SMA), CD68, 1α1 collagen (Col1α1), 1α2 collagen (Col1α2), 1α3 collagen (Col1α3), 6α1 collagen (Col6α1), 8α1 collagen (Co81α1), GAPDH (glyceraldehyde-3-phosphate dehydrogenase), heat shock protein 47 (Hsp47), prolyl 4-hydroxylase alphal subunit (P4HA1), prolyl 4-hydroxylase alpha2 subunit (P4HA2), and prolyl 4-hydroxylase alpha3 subunit (P4HA3) were purchased from Sigma-Aldrich.
Hepatic stellate cells, which are involved in liver fibrosis, are known to be activated by TGFβ (Fabregat, I. et al., FEBS J., 283:2219-2232 (2016)). […]

[1] = tested on: mRNA expression of fibrosis-related factors (collagens, elastin) in myofibroblasts; assay: siRNA treatment of myofibroblasts from carbon tetrachloride-induced fibrotic liver, fibrosis-related factor mRNA by real-time RT-PCR; format: cell-based, mouse; conditions: myofibroblasts from CCl4 liver fibrosis model; si Smad3 versus si Ctrl; P4HA3, Col1α1, Col1α2, Col3α1; FIG. 26c

“si Smad3: siRNA for mouse SMAD3, SEQ ID NOs: 14 and 15; ThermoFisher Scientific catalog 4390771, Assay ID s69495 (chain 1 GGAATTTGCTGCCCTCCTATT; chain 2 TAGGAGGGCAGCAAATTCCCT; listed as DNA, chemistry not given here)” was tested, and the “mRNA expression of SMAD3” value (SMAD3 mRNA) was “inhibits” and the “mRNA expression of fibrosis-related factors including P4HA3” value [1] was “suppressed”.
